In patent US20260306640A1, “TECHNOLOGIES TARGETING CELL STATES” (Auron Therapeutics, Inc., priority 2023, published 2026):

How the values were obtained:
KAT2B = KAT2B (Homo sapiens, UniProt Q92831); assay: KAT2B degradation, Western Blot (Jess), NCI-H1048 cells; assay type: cell-based; design: degrader, Western blot (Jess); settings: NCI-H1048 cells, KAT2B, 24 h, Western Blot, vs DMSO; read-out: KAT2B NCI-H1048 DC50
Experimental: (§1) MOLM-13 cells or NCI-H1048 cells were used for Western Blot analysis of KAT2A degradation. KAT2B degradation can be measured in a similar manner with NCI-H1048 cells.
(§2) H1048 cells were maintained at 37° C. in 5% CO2 and 90% humidity in HITES medium with 5% fetal bovine serum (FBS). HITES medium was […] with the following additions: 0.005 mg/ml Insulin, 0.01 mg/ml Transferrin, 30 nM Sodium selenite, 10 nM Hydrocortisone, 10 nM beta-estradiol, and extra 2 mM L-glutamine (for final concentration of 4.5 mM). Cells were plated in full media at 1 million cells/2 mL in a 6-well tissue culture treated plate with or without compounds for 24 h at 37° C. in 5% CO2.
(§3) MOLM-13 cells or NCI-H1048 cells were washed with PBS, then lysed with RIPA buffer containing 1×protease and phosphatase inhibitors (SantaCruz Biotechnologies Cat #sc-24948A). Protein was isolated by centrifugation at 12,000×g for 10 minutes at 4° C. and supernatant was collected. Protein was quantified via Bradford assay. Samples were diluted to 4 μg lysate in 16 μL RIPA buffer and then 4 μL of Jess Sample Buffer. Samples were heated at 95° C. for 5 minutes. Samples were loaded onto 12-230 kDa Jess™ Separation Module, 8×25 capillary cartridges (SM-W004, Biotechne). Antibodies loaded were: Primary antibody for KAT2A (GCN5L2 (C26A10) Rabbit mAb (3305, CST)) and for KAT2B (PCAF (C14G9)) Rabbit mAb (3378, CST) at 1:1000 and Anti-Rabbit Detection Module for Jess™ (Cat No #DM-001, Biotechne). Signal was detected by chemiluminescence.
(§4) DC50 values were determined from percent reduction of protein as compared to the DMSO control.

KAT2A = KAT2A (Homo sapiens, UniProt Q92830); assay: KAT2A degradation, Western Blot (Jess), NCI-H1048 cells; assay type: cell-based; design: degrader, Western blot (Jess); settings: NCI-H1048 cells, KAT2A, 24 h, Western Blot, vs DMSO; read-out: KAT2A NCI-H1048 DC50
Experimental: as §1, §2, §3, §4

Chain of KAT2B (Q92831 whole entry): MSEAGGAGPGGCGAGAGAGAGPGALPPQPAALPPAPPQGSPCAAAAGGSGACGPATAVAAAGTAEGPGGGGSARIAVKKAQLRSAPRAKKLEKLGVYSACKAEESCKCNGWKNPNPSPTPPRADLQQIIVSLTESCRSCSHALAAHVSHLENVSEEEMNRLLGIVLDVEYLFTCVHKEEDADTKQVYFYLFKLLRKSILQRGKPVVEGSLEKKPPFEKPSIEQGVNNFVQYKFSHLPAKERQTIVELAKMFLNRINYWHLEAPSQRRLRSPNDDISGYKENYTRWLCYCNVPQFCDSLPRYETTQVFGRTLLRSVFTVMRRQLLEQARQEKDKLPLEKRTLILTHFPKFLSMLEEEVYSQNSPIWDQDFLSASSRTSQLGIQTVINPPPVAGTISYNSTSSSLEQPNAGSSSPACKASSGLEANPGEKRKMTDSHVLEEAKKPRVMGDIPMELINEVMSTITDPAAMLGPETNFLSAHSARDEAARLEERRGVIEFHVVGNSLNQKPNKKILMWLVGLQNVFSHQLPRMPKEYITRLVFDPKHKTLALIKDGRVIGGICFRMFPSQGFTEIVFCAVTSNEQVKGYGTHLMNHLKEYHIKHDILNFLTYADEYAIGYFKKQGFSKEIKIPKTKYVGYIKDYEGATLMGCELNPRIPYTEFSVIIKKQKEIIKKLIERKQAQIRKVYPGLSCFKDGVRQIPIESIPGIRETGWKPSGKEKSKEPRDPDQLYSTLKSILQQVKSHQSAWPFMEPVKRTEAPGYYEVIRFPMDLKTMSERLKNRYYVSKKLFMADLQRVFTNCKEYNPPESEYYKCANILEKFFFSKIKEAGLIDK
Chain of KAT2A (Q92830 whole entry): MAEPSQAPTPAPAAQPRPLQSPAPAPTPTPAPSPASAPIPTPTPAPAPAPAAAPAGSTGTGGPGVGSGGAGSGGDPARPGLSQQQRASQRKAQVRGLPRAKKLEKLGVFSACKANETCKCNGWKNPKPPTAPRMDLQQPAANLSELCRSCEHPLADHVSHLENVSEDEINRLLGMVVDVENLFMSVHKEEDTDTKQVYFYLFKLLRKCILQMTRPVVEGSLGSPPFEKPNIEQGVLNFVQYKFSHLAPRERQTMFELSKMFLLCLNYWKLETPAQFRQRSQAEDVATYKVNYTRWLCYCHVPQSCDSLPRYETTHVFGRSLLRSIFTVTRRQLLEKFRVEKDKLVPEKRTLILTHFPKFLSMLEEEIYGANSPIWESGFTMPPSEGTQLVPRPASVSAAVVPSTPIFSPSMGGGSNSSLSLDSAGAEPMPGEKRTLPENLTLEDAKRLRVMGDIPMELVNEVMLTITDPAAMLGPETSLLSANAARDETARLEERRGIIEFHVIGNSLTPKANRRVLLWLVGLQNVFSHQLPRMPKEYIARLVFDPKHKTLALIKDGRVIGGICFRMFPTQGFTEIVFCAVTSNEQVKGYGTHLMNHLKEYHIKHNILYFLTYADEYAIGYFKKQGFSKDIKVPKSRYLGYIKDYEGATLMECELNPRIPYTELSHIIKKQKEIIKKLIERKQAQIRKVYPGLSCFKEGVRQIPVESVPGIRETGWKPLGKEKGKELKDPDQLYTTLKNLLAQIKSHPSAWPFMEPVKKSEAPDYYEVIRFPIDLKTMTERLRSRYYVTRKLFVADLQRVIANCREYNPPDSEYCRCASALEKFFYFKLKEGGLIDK

| SMILES | DC50 (KAT2B) [nM] | DC50 (KAT2A) [nM] |
| --- | --- | --- |
| Cc1ncsc1-c1ccc(CNC(=O)[C@@H]2C[C@@H](O)CN2C(=O)[C@@H](NC(=O)CN2CCC(N3CCN(C(=O)c4ccc([C@H]5C[C@@H](Nc6cnn(C)c(=O)c6Br)CN(C)C5)cc4)CC3)CC2)C(C)(C)C)cc1 [Compound 409] | > 30 | 1 to 30 |
| CN1C[C@H](Nc2cnn(C)c(=O)c2Cl)C[C@H](c2ccc(CN3C4CC3CN(c3cccc(C5CCC(=O)NC5=O)c3)C4)cc2)C1 (stereo partly shown) [Compound 369] | > 30 | 1 to 30 |
| CN1C[C@H](Nc2cnn(C)c(=O)c2Cl)C[C@H](c2ccc(CN3CC(c4ccc5c(c4)C(=O)N(C4CCC(=O)NC4=O)C5=O)C3)cc2)C1 (stereo partly shown) [Compound 199] | > 30 | > 30 |
| Cc1c(N[C@@H]2C[C@H](c3ccc(CN4CCN(c5cncc(C6CCC(=O)NC6=O)c5)CC4)cc3)CN(C)C2)cnn(C)c1=O (stereo partly shown) [Compound 346] | > 30 | > 30 |
| COc1cc(N2CCC3(CCN(C(=O)c4ccc([C@H]5C[C@@H](Nc6cnn(C)c(=O)c6Cl)CN(C)C5)cc4)CC3)CC2)c(F)cc1C1CCC(=O)NC1=O (stereo partly shown) [Compound 279] | > 30 | < 1 |
| C[C@H](Nc1nn(C)c(=O)c2ncccc12)[C@H](c1ccc(C(=O)N2CCC3(CC2)CCN(c2ccc(C4CCC(=O)NC4=O)cc2)CC3)cc1)N(C)C (stereo partly drawn) [Compound 430, 3-(4-(9-(4-((1S,2S)-1-(dimethylamino)-2-((7-methyl-8-oxo-7,8-dihydropyrido[2,3-d]pyridazin-5-yl)amino)propyl)benzoyl)-3,9-diazaspiro[5.5]undecan-3-yl)phenyl)-piperidine-2,6-dione] | > 30 | < 1 |
| Cc1c(N[C@@H]2C[C@H](c3ccc(C(=O)N4CCC5(CC4)CCN(c4ccc(C6CCC(=O)NC6=O)c(C(F)(F)F)c4)CC5)cc3)CN(C)C2)cnn(C)c1=O (stereo partly shown) [Compound 224] | > 30 | > 30 |
| CN1C[C@H](Nc2cnn(C)c(=O)c2Cl)C[C@H](c2ccc(C(=O)N3CCC4(CC3)CCN(c3cnn(C5CCC(=O)NC5=O)c3)CC4)cc2)C1 (stereo partly shown) [Compound 207] | > 30 | < 1 |
| CN1C[C@H](Nc2cnn(C)c(=O)c2Br)C[C@H](c2ccc(C(=O)N3CCC4(CC3)CCN(c3ccc(OC5CCC(=O)NC5=O)cn3)CC4)cc2)C1 (stereo partly shown) [Compound 366] | 1 to 30 | < 1 |
| CN1C[C@H](Nc2cnn(C)c(=O)c2Cl)C[C@H](c2ccc(C(=O)N3CCC4(CC3)CCN(c3cccc5c3C(=O)N(C3CCC(=O)NC3=O)C5=O)CC4)cc2)C1 (stereo partly shown) [Compound 302] | 1 to 30 | 1 to 30 |
| Cn1ncc(N[C@@H]2C[C@H](c3ccc(C(=O)N4CCC5(CC4)CCN(c4ccc(C6CCC(=O)NC6=O)cc4)CC5)cc3)CN(C3CC3)C2)c(Br)c1=O (stereo partly drawn) [Compound 424, 3-(4-(9-(4-((3R,5R)-5-((5-bromo-1-methyl-6-oxo-1,6-dihydropyridazin-4-yl)amino)-1-cyclopropylpiperidin-3-yl)benzoyl)-3,9-diazaspiro[5.5]undecan-3-yl)phenyl)piperidine-2,6-dione] | > 30 | > 30 |
| Cc1ncsc1-c1ccc(CNC(=O)[C@@H]2C[C@@H](O)CN2C(=O)[C@@H](NC(=O)CCCCCCCCNC(=O)c2ccc([C@H]3C[C@@H](Nc4cnn(C)c(=O)c4Br)CN(C)C3)cc2)C(C)(C)C)cc1 [Compound 420] | > 30 | > 30 |
| C[C@H](Nc1nn(C)c(=O)c2ccccc12)[C@H](c1ccc(C(=O)N2CCC3(CC2)CCN(c2ccc(C4CCC(=O)NC4=O)cc2)CC3)cc1)N(C)C (stereo partly drawn) [Compound 432, 3-(4-(9-(4-((1S,2S)-1-(dimethylamino)-2-((3-methyl-4-oxo-3,4-dihydro-phthalazin-1-yl)amino)propyl)benzoyl)-3,9-diazaspiro[5.5]undecan-3-yl)phenyl)piperid-ine-2,6-dione] | > 30 | < 1 |
| Cc1c(N[C@@H]2C[C@H](c3ccc(C(=O)N4CCC5(CC4)CCN(c4cc(C(F)(F)F)c(C6CCC(=O)NC6=O)cn4)CC5)cc3)CN(C)C2)cnn(C)c1=O (stereo partly shown) [Compound 230] | 1 to 30 | 1 to 30 |
| CN1C[C@H](Nc2cnn(C)c(=O)c2Cl)C[C@H](c2ccc(CN3CC(c4cccc(C5CCC(=O)NC5=O)c4)C3)cc2)C1 (stereo partly shown) [Compound 194] | > 30 | 1 to 30 |
| Cc1cc(N2CCN(C3CN(C(=O)c4ccc([C@H]5C[C@@H](Nc6cnn(C)c(=O)c6Br)CN(C)C5)cc4)C3)CC2)ccc1C1CCC(=O)NC1=O (stereo partly shown) [Compound 311] | > 30 | 1 to 30 |
| CN1CC(Nc2cnn(C)c(=O)c2Cl)CC(c2ccc(CN3CCN(c4cccc(OC5CCC(=O)NC5=O)c4)CC3)cc2)C1 (stereo not shown) [Compound 368] | > 30 | 1 to 30 |
| CN1C[C@H](Nc2cnn(C)c(=O)c2Cl)C[C@H](c2ccc(CN3CCN(c4cncc(C5CCC(=O)NC5=O)c4)CC3)cc2)C1 (stereo partly shown) [Compound 344] | > 30 | > 30 |

The remaining lines, values ahead:

| DC50 (KAT2B) [nM] | DC50 (KAT2A) [nM] | SMILES |
| --- | --- | --- |
| 1 to 30 | 1 to 30 | CN1C[C@H](Nc2cnn(C)c(=O)c2Br)C[C@H](c2ccc(C(=O)N3CCC4(CC3)CCN(c3cccc5c3C(=O)N(C3CCC(=O)NC3=O)C5=O)CC4)cc2)C1 (stereo partly shown) [Compound 17] |
| < 1 | < 1 | CN1C[C@H](Nc2cnn(C)c(=O)c2Br)C[C@H](c2ccc(C(=O)N3CCC4(CCC(c5ccc(C6CCC(=O)NC6=O)cc5)CC4)CC3)cc2)C1 (stereo partly shown) [Compound 326] |
| 1 to 30 | < 1 | Cc1c(N[C@@H]2C[C@H](c3ccc(CN4CCN(c5ccc6c(c5)C(=O)N(C5CCC(=O)NC5=O)C6=O)CC4)cc3)CN(C)C2)cnn(C)c1=O (stereo partly shown) [Compound 303] |
| < 1 | < 1 | CN1C[C@H](Nc2cnn(C)c(=O)c2Br)C[C@H](c2ccc(C(=O)N3CCC4(CC3)CCN(c3ccc5c(C6CCC(=O)NC6=O)nn(C)c5c3)CC4)cc2)C1 (stereo partly shown) [Compound 211] |
| < 1 | < 1 | CN1C[C@H](Nc2cnn(C)c(=O)c2Br)C[C@H](c2ccc(CN3CCN(c4cccc5c4oc(=O)n5C4CCC(=O)NC4=O)CC3)cc2)C1 (stereo partly shown) [Compound 196] |
| < 1 | < 1 | CN1C[C@H](Nc2cnn(C)c(=O)c2Br)C[C@H](c2ccc(C(=O)N3CCC4(CC3)CCN(c3ccc(N5CCC(=O)NC5=O)c(F)c3)CC4)cc2)C1 [Compound 397] |
| < 1 | < 1 | CN1C[C@H](Nc2cnn(C)c(=O)c2Cl)C[C@H](c2ccc(CN3CCC4(CC3)CCN(c3ccc(C5CCC(=O)NC5=O)c(F)c3)CC4)cc2)C1 (stereo partly shown) [Compound 340] |
| 1 to 30 | < 1 | Cc1c(N[C@@H]2C[C@H](c3ccc(C(=O)N4CCC5(CC4)CCN(c4ccc(C6CCC(=O)NC6=O)cc4F)CC5)cc3)CN(C)C2)cnn(C)c1=O (stereo partly shown) [Compound 225] |
| < 1 | < 1 | CN1C[C@H](Nc2cnn(C)c(=O)c2Br)C[C@H](c2ccc(C(=O)N3CCC4(CCC(c5ccc(C6CCC(=O)NC6=O)cc5)CC4)CC3)cc2)C1 (stereo partly shown) [Compound 323] |
| < 1 | < 1 | CN1C[C@H](Nc2cnn(C)c(=O)c2Br)C[C@H](c2ccc(C(=O)N3CCC4(CC3)CCN(c3ccc(C5CCC(=O)NC5=O)cn3)CC4)cc2)C1 (stereo partly shown) [Compound 261] |
| < 1 | < 1 | CN1C[C@H](Nc2cnn(C)c(=O)c2Br)C[C@H](c2ccc(C(=O)N3CCC4(CCC(c5ccc(C6CCC(=O)NC6=O)cn5)CC4)CC3)cc2)C1 (stereo partly shown) [Compound 321] |
